In patent EP0594890A1, “Polycyclic compounds, their preparation and their use as phosphodiesterases inhibitors” (TSUMURA & CO., priority 1992, dated 1994):

Tests used:
Bovine heart PDE = Bovine heart PDE inhibition activity; type: biochemical; details: substrate [³H]-cyclic AMP, 37°C for 30 minutes; compound concentration not given
Procedure: [Bovine heart PDE inhibition activity]
Placed in a test tube were 50 µℓ of 0.5 M tris-HCl buffer (pH 7.5), 50 µℓ of 50 mM magnesium chloride, 50 µℓ of an enzyme solution (bovine heart, product of Boheringer Mannheim Yamanouchi Co., Ltd.), and a dimethylsulfoxide (DMSO) solution of the compound obtained in each example. Purified water was then added to a total volume of 450 µℓ, followed by incubation at 37°C for 3 minutes. Then, 50 µℓ or [³H]-cyclic AMP (0.01 mM, 1.0 x 1.0⁻⁶ dpm) as a substrate were added to initiate a reaction. After incubated at 37°C for 30 minutes, the test tube was heated for 3 minutes in a boiling water bath to terminate the reaction. After cooling, snake venem (500 µg) was added, followed by incubation at 37°C for 30 minutes. An ion-exchange resin ("Dowex-AG1-X8", trade name) was then added, followed by stirring and centrifugation. A supernatant was sampled and its radioactivity was measured by a liquid scintillation counter. Percent inhibition was determined in accordance with the following formula: [formula] where, C: Radioactivity when the compound in the example was not contained. S: Radioactivity when the compound in the example was added.

[1] = tested on: Platelet phosphodiesterase (PDE); assay: Platelet phosphodiesterase (PDE) inhibition activity in washed platelets; type: biochemical, rabbit; details: 500 µM as the final concentration of the compound; washed platelet mixture; substrate [³H]-cyclic AMP, 37°C for 30 minutes
Description: [Preparation of washed platelets]
A rabbit was held on its back on a fixing table and, under non-anesthesia, the leg femoral artery was cannulated. Next, 2 mℓ of a 3.8% aqueous solution of sodium citrate were placed in a 20-mℓ plastic syringe and 18 mℓ of the arterial blood were collected. The syringe was caused to fall down 2-3 times so that its contents were mixed. The above procedures were repeated using 3-4 syringes. The blood so collected was transferred into a plastic-made test tube and centrifuged at 800 rpm for 10 minutes at room temperature to settle blood cells, whereby an upper layer (PRP) was obtained. The PRP was next centrifuged at 3000 rpm for 10 minutes so that platelets were collected. After 12.3 mM tris-HCl buffer (pH 7.4) containing 0.137 M of NaCl, 1.54 mM of EDTA and 20 mM of glucose was added to the platelets and pipetting was conducted thoroughly, centrifugation was conducted at 3000 rpm for 10 minutes. The above procedures were repeated twice. Precipitated platelets were re-suspended in the above tris-HCl buffer at a platelet concentration of 6.5 x 10⁻⁶ platelets/µℓ. They were used as washed platelets in the subsequent experiments.
[Platelet phosphodiesterase (PDE) inhibition activity]
Placed in a test tube were 50 µℓ of 0.5 M tris-HCl buffer (pH 7.5), 50 µℓ of 50 mM magnesium chloride, 200 µℓ of the washed platelet mixture, and a dimethylsulfoxide (DMSO) solution of the compound (500 µM as the final concentration of the compound) obtained in each example. Purified water was added to a total volume of 450 µℓ, followed by incubation at 37°C for 3 minutes. Then, 50 µℓ off [³H]-cyclic AMP (0.01 mM, 1.0 x 1.0⁻⁶ dpm) as a substrate were added to initiate a reaction. […] A supernatant was sampled and its radioactivity was measured by a liquid scintillation counter. Percent inhibition was determined in accordance with the following formula: [formula] where, C: Radioactivity when the compound in the example was not contained. S: Radioactivity when the compound in the example was added.

| Structure (SMILES) | Inhibition rate (%) Bovine heart PDE (Bovine heart PDE) [%] | Inhibition rate (%) Platelet PDE [1] [%] |
| --- | --- | --- |
| COc1cc2c(c(OC)c1OC)-c1c(cc(OC)c(OC)c1OC)C[C@@H]1COC(=O)C1=C2 (single isomer, unassigned) [Test Compound 8] | 36.3 | – |
| COc1cc2c(c(OC)c1OC)-c1c(cc3c(c1OC)OCO3)C[C@@H]1COC(=O)C1=C2 (single isomer, unassigned) [Test Compound 4, (3as,Sbiar)-3a,4-Dihydro-8,9,10,11-tetramethoxy-6,7-methylenedioxydibenzo[4,5:6,7]cycloocta-[1,2-c]furan-1(3H)-one] | 0.0 | 23.1 |
| COc1cc2c(c(OC)c1OC)-c1c(cc(OC)c3c1OCO3)C[C@H]1COC(=O)C1=C2 [Test Compound 5, (3aR,Sbiar)-3a,4-Dihydro-6,9,10,11-tetramethoxy-7,8-methylenedioxybenzo[4,5:6,7]cycloocta[1,2-c]furan-1(3H)-one] | 2.8 | 44.0 |
| COc1cc2c(c(OC)c1OC)-c1c(cc3c(c1OC)OCO3)C[C@@H]1COC(=O)C1=C2 (single isomer, unassigned) [Test Compound 2] | 0.0 | 25.3 |
| COc1cc2c(c(OC)c1OC)-c1c(cc(O)c(O)c1OC)CC1COC(=O)C1=C2 (stereo not drawn) [Test Compound 6, (3aRS,SRbiar)-3a,4-Dihydro-6,7-dihydroxy-8,9,10,11-tetramethoxydibenzo[4,5:6,7]cycloocta[1,2-c]-furan-1(3H)-one] | 90.5 | – |
| COc1cc2c(c(OC)c1OC)-c1c(cc(O)c(O)c1OC)C[C@@H]1COC(=O)C1=C2 [Test Compound 1, (3aS,Rbiar)-3a,4-Dihydro-6,7-dihydroxy-8,9,10,11-tetramethoxydibenzo[4,5:6,7)cycloocta[1,2-c]furan-1(3H)-one] | 85.0 | – |
| COc1cc2c(c(OC)c1OC)-c1c(cc(OC)c3c1OCO3)C[C@@H]1COC(=O)C1=C2 [Test Compound 3, (3aS,Rbiar)-3a,4-Dihydro-6,9,10,11-tetramethoxy-7,8-methylenedioxydibenzo[4,5:6,7)cycloocta[1,2-c]furan-1(3H)-one] | 19.5 | – |
| COc1cc2c(c(OC)c1OC)-c1c(cc(OC)c(OC)c1OC)C[C@@H]1COC(=O)C1=C2 (single isomer, unassigned) [Test Compound 7] | 50.9 | – |
